Usually IC50 stands for the midpoint of a concentration-inhibition curve. Low values mean higher potency, high ones lower potency.

One assay deals with T1, CB1 receptor (Homo sapiens, UniProt P21554).
T1 construct: Perkin Elmer (CB1-CHO cells); host or cells: Flp-In CHO cells or CB1-CHO cells, stably expressing
Description: CB1 cAMP antagonist assay (LANCE Ultra cAMP kit). Format: cell-based. To be noted: CHO cells stably expressing the CB1 receptor; forskolin and agonist CP55940 at EC90. The method, boiled down: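 CHO cells stably expressing CB1 or CB2 were preincubated with compound 10 min at 37 °C, then stimulated 30 min at 25 °C with EC90 forskolin plus EC90 CP55940, in HBSS/HEPES/BSA buffer with 0.5 mM IBMX. cAMP read by TR-FRET (665/615 nm); % inhibition against AM251 (CB1) or AM630 (CB2) controls, IC50 from 4-parameter Hill fit.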
In general terms: In TR-FRET formats the signal depends on donor and acceptor labels being close together.

A further assay has as its target T2, CB2 receptor (Homo sapiens, UniProt P34972).
T2 construct: host or cells: CB2-CHO cells, stably expressing
Description: CB2 cAMP antagonist assay (LANCE Ultra cAMP kit). The settings on record: CB2-CHO cells stably expressing the CB2 receptor; forskolin and agonist CP55940 at EC90. Format: cell-based. From the text: LANCE Ultra cAMP kit (Perkin Elmer) was used to quantitate the amount of 3′,5′-cyclic adenosine monophosphate (cAMP) produced in Flp-In CHO cells (Invitrogen) stably expressing the CB1 receptor, CB1-CHO cells (Perkin Elmer) stably expressing the CB1 receptor, or CB2-CHO cells (Perkin Elmer) stably expressing the CB2 receptor.
Forskolin was initially titrated to determine the response of the cells. The EC90 of forskolin was used for compound testing. CP55940 was titrated and used with EC90 of forskolin to determine the level of agonist stimulation. EC90 of the agonist was used for subsequent compound testing. For the CB1 assay, Forskolin (Sigma), CP55940 (Cayman Chemicals), and AM251 (MCE) were diluted in 100% DMSO, starting at 100 mM, 1 mM, and 1 mM respectively, in 3-fold serial dilutions. For the CB2 assay, Forskolin (Sigma), CP55940 (Cayman Chemicals), and AM630 (MCE) were diluted in 100% DMSO, starting at 100 mM, 1 mM, and 30 mM respectively, in 3-fold serial dilutions. Test compounds were diluted in 100% DMSO starting from 10 mM, 3-fold dilutions. The cAMP assay buffer contains 1× Hank's Buffered Saline Solution with Ca^2+ and Mg^2+ (Invitrogen), 5.3 mM HEPES (Invitrogen), 0.05% BSA, 0.5 mM IBMX (Sigma). For all assays, cells were harvested, counted, and diluted in cAMP assay buffer to 1×10^5 cells/mL. Only cells with viability >85% were used for the assay. Cells were seeded at 1000 cells/well in 384-well plates and 10 nL/well AM251 (for CB1), AM630 (for CB2) or test compound was added and incubated at 37° C. for 10 min. Then forskolin and agonist were added to reach their EC90 and incubated at 25° C. for 30 min. To detect the amount of cAMP produced, 5 μL of a 100× diluted stock of Eu-cAMP tracer and 5 μL of 200× diluted stock of Ulight-anti-cAMP were added to each well, and the plate incubated at 25° C. for 15 min. The FRET signal was read using an EnVision microplate reader (λex=320 nm, λem=615 nm and 665 nm). The results are expressed as % Inhibition, where % inhibition=100−100×(U−C2)/(C1−C2), where U is the FRET ratio (λem (665 nm)/λem (615 nm)) of sample, C1 is the average of the high controls (signal with no antagonist added), and C2 is the average of low controls (signal with the highest concentration of AM251 or AM630 antagonist). The IC50 is determined by fitting the percentage of inhibition as a function of compound concentrations with the Hill equation, using a 4-parameter fit in either XLfit or GraphPad Prism.

T2 sequence (P34972 whole entry): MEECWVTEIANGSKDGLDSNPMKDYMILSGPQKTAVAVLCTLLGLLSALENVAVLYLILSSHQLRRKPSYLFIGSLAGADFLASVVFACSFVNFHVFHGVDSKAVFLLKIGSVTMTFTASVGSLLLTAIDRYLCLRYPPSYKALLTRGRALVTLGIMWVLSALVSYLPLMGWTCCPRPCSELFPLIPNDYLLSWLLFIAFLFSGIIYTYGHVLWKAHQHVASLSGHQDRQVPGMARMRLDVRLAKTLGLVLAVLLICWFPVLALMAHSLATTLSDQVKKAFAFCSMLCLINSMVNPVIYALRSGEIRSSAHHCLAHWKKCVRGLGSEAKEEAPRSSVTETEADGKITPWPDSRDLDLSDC
T1 sequence (P21554 whole entry): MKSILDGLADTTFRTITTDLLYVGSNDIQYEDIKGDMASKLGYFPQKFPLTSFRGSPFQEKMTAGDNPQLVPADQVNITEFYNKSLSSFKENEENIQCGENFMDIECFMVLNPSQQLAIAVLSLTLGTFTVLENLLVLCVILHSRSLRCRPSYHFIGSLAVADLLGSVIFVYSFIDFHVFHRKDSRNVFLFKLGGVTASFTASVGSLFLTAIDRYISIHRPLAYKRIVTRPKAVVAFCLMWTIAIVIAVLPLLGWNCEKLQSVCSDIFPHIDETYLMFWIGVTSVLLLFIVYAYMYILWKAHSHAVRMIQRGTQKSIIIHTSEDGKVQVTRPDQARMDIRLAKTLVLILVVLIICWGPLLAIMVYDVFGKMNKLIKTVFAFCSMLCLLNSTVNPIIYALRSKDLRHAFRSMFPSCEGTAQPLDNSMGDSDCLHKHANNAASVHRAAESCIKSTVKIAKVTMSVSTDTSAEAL

Regarding `Cn1c(=O)c2c(nc(-c3ccccc3Cl)n2-c2ccc(Cl)cc2)n(Cc2ccc(S(N)(=O)=O)cc2)c1=O` [Compound 135, 4-[[8-(2-chlorophenyl)-7-(4-chlorophenyl)-1-methyl-2,6-dioxopurin-3-yl]methyl]benzenesulfonamide], the results for the half-inhibitory concentration (IC50) at CB1 receptor and on CB2 receptor were below 100 nM and at least 5000 nM, respectively.
For the molecule `NC(=O)Cn1c(=O)c2c(nc(-c3ccccc3Cl)n2-c2ccc(Cl)cc2)n(CC2CCS(=O)(=O)CC2)c1=O` [Compound 136, 2-[8-(2-chlorophenyl)-7-(4-chlorophenyl)-3-[(1,1-dioxo-1λ^6-thian-4-yl)methyl]-2,6-dioxopurin-1-yl]acetamide], the IC50 on CB1 receptor is below 100 nM; on CB2 receptor, at least 5000 nM.
For `Cn1c(=O)c2c(nc(-c3ccccc3Cl)n2-c2ccc(Cl)cc2)n(Cc2ccc(S(N)(=O)=O)cn2)c1=O` [Compound 159, 6-[[8-(2-chlorophenyl)-7-(4-chlorophenyl)-1-methyl-2,6-dioxopurin-3-yl]methyl]pyridine-3-sulfonamide], the results for the half-maximal inhibitory concentration (IC50) on CB1 receptor and on CB2 receptor were below 100 nM and at least 5000 nM, respectively.
In the case of `Cn1c(=O)c2c(nc(-c3ccccc3Cl)n2-c2ccc(Cl)cc2)n(Cc2ccc(S(=O)(=O)NCCO)cn2)c1=O` [Compound 164, 6-[[8-(2-chlorophenyl)-7-(4-chlorophenyl)-1-methyl-2,6-dioxopurin-3-yl]methyl]-N-(2-hydroxyethyl)pyridine-3-sulfonamide], the IC50 is below 100 nM on CB1 receptor and at least 5000 nM at CB2 receptor.
Take `Cn1c(=O)c2c(nc(-c3ccccc3Cl)n2-c2ccc(Cl)cc2)n(Cc2ccc(C(=O)NC3CCOCC3)cn2)c1=O` [Compound 165]: the IC50 at CB1 receptor was below 100 nM; on CB2 receptor, at least 5000 nM.
In the case of `CS(=O)(=O)N1CCC(Cn2c(=O)n(CC(N)=O)c(=O)c3c2nc(-c2ncccc2Cl)n3-c2ccc(Cl)cc2)CC1` [Compound 170, 2-[7-(4-chlorophenyl)-8-(3-chloropyridin-2-yl)-3-[(1-methanesulfonylpiperidin-4-yl)methyl]-2,6-dioxopurin-1-yl]acetamide], the results for the concentration for half-maximal inhibition (IC50) at CB1 receptor and at CB2 receptor were below 100 nM and at least 5000 nM, respectively.

Source of the values: patent publication US20220380370A1 (Goldfinch Bio, Inc., priority 2019, published 2022).
